This note sets out measurements from PubChem BioAssay AID651717 (Broad Institute, 2012).

SMILES strings stand for the structures.

The experiment relates to mESC Bmi1-luciferase reporter, firefly/renilla ratio, 24 h. The experiment can be described thus: compounds raising Bmi1 reporter signal – mouse embryonic stem cells, luciferase, cherry-pick, esBAF inhibitor project, dose response (AID 651717).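 Further: luciferase knocked into Bmi1 locus with EF-1a renilla as cell number control; rising ratio signals esBAF inhibition which derepresses Bmi1.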
In the case of `CC(C)NC(=O)CCc1nnc(Cc2cccc(C(F)(F)F)c2)o1`, the AC40 was 15.3 µM.

Take `COc1ccc(NC(=O)Nc2cc(C)ccc2F)cc1`: the AC40 is 0.738 µM. For `CCn1c(=N)n(CC(=O)c2cccc(OC)c2)c2ccccc21`, the AC40 is 8.58 µM.
